Measured values: patent US20230149408A1, “INHIBITORS OF HUMAN IMMUNODEFICIENCY VIRUS REPLICATION” (VIIV HEALTHCARE UK (No. 5) LIMITED, priority 2020, published 2023)
pEC50: −log10 of the molar value. Read-outs that look alike come from different tables or passages of the source.

How the values were obtained:
Assay type in all cases: cell-based
[1] = system: recombinant NL4-3 virus; test: HIV cell culture assay: antiviral activity toward recombinant NL4-3 Renilla luciferase virus in MT-2 cells
Protocol: HIV cell culture assay - MT-2 cells, 293T cells and the proviral DNA clone of NL4-3 virus were obtained from the NIH AIDS Research and Reference Reagent Program. MT-2 cells were propagated in RPMI 1640 media supplemented with 10% heat inactivated fetal bovine serum (FBS), […]. The 293T cells were propagated in DMEM media supplemented with 10% heat inactivated FBS, […]. A recombinant NL4-3 proviral clone, in which a section of the nef gene was replaced with the Renilla luciferase gene, was used to make the reference virus used in these studies. The recombinant virus was prepared through transfection of the recombinant NL4-3 proviral clone into 293T cells using Transit-293 Transfection Reagent from Mirus Bio LLC (Madison, WI). Supernatent was harvested after 2-3 days and the amount of virus present was titered in MT-2 cells using luciferase enzyme activity as a marker by measuring luciferase enzyme activity. Luciferase was quantitated using the EnduRen Live Cell Substrate from Promega (Madison, WI). Antiviral activities of compounds toward the recombinant virus were quantified by measuring luciferase activity in MT-2 cells infected for 4-5 days with the recombinant virus in the presence of serial dilutions of the compound.
The 50% effective concentration (EC50) was calculated by using the exponential form of the median effect equation where (Fa) = 1/[1+ (ED50/drug conc.)m] (Johnson VA, Byington RT. Infectivity Assay. In Techniques in HIV Research. ed. Aldovini A, Walker BD. 71-76. New York: Stockton Press.1990). The 50% inhibitory concentration (EC50) was calculated by using the exponential form of the median effect equation where percent inhibition = 1/[1 + (EC50/drug concentration)m], where m is a parameter that reflects the slope of the concentration-response curve.

[2] = Compound cytotoxicity, XTT-based colorimetric assay; conditions: human; uninfected MT2 cells, day 4, XTT
Protocol: (§1) Compound cytotoxicity and the corresponding CC50 values were determined using the same protocol as described in the antiviral assay except that uninfected cells were used. Cytotoxicity was assessed on day 4 in uninfected MT2 cells by using a XTT (2,3-bis[2-Methoxy-4-nitro-5-sulfophenyl]-2H-tetrazolium-5-carboxyanilide inner salt)-based colorimetric assay (Sigma-Aldrich, St Louis, Mo).

[3] = system: uninfected MT2 cells; test: as above; conditions: day 4, XTT
Protocol: as §1

[4] = Human immunodeficiency virus 1, NL43, MT2

Row | SMILES | pEC50 [1, 4] | CC50 at 4 day [2] [nM] | pEC50 ([1]; MT-2 cells infected 4-5 days, luciferase activity, read-out: EC50) | CC50 [3] [nM]
1 | Cn1nc(NS(C)(=O)=O)c2c(Cl)ccc(-n3c([C@H](Cc4cc(F)cc(F)c4)NC(=O)Cn4nc(C(F)F)c5c4C(F)(F)[C@@H]4C[C@H]54)nc4nc(OCCC(F)(F)F)ccc4c3=O)c21 (atropisomer, axis not shown; (P)) [Example 4, N-(1-((6P)-3-(4-chloro-1-methyl-3-(methylsulfonamido)-1H-indazol-7-yl)-4-oxo-7-(3,3,3-trifluoropropoxy)-3,4-dihydropyrido[2,3-d]pyrimidin-2-yl)-2-(3,5-difluorophenyl)ethyl)-2-((3bS,4aR)-3-(difluoromethyl)-5,5-difluoro-3b,4,4a,5-tetrahydro-1H-cyclopropa[3,4]cyclopenta[1,2-c]pyrazol-1-yl)acetamide] | 10.60 | > 500 | – | –
2 | Cn1nc(NS(C)(=O)=O)c2c(Cl)ccc(-n3c([C@H](Cc4cc(F)cc(F)c4)NC(=O)Cn4nc(C(F)F)c5c4C(F)(F)[C@@H]4C[C@H]54)nc4cc(-c5nccc(C(F)F)n5)ccc4c3=O)c21 (single isomer, unassigned) [Example 2] | 10.37 | > 20000 | – | –
3 | Cn1nc(NS(C)(=O)=O)c2cccc(-n3c([C@H](Cc4cc(F)cc(F)c4)NC(=O)Cn4nc(C(F)F)c5c4C(F)(F)[C@@H]4C[C@H]54)nc4nc(OCCC(C)(F)F)ccc4c3=O)c21 (single isomer, unassigned) [Example 3] | 10.72 | > 20000 | – | –
4 | Cn1nc(NS(C)(=O)=O)c2c(Cl)ccc(-n3c([C@H](Cc4cc(F)cc(F)c4)NC(=O)Cn4nc(C(F)F)c5c4C(F)(F)[C@@H]4C[C@H]54)nc4cc(-c5cccc(C(F)(F)F)n5)ccc4c3=O)c21 [Example 1, N-((S)-1-((3P)-3-(4-chloro-1-methyl-3-(methylsulfonamido)-1H-indazol-7-yl)-4-oxo-7-(6-(trifluoromethyl)pyridin-2-yl)-3,4-dihydroquinazolin-2-yl)-2-(3,5-difluorophenyl)ethyl)-2-((3bS,4aR)-3-(difluoromethyl)-5,5-difluoro-3b,4,4a,5-tetrahydro-1H-cyclopropa[3,4]cyclopenta[1,2-c]pyrazol-1-yl)acetamide] | – | – | 10.03 | > 20000
